Laboratory results: paper PMC10707934, “Design and Synthesis of Novel α-Methylchalcone Derivatives, Anti-Cervical Cancer Activity, and Reversal of Drug Resistance in HeLa/DDP Cells” (Molecules, 2023)

What was measured:
Format in all cases: cell-based, human
[1] = test system: Bax; assay: Western blot, Bax expression in HeLa cells; details: 24 h, 2.5, 5, and 10 μM
Method: (§1) HeLa cells were cultured in 60 mm Petri dishes at a density of 1.0 × 10^6 cells per dish and treated with 0.1% DMSO (vehicle), positive control chalcone (20 μM), and different concentrations of compound 3k (2.5, 5, and 10 μM), respectively. Following a 24 and 48 h incubation period, the cells were harvested via centrifugation and subsequently washed twice with PBS that had been chilled to 0 °C. Next, the cells were homogenized using RIPA lysis buffer (Solarbio, Beijing, China) and supplemented with 1% PMSF (MP Biomedicals, 0754-25G, CAS:329-98-6, Santa Ana, CA, USA) and 1% mixed phosphatase inhibitor (Solarbio, Beijing, China). […]
(§2) Subsequently, the protein concentrations were determined utilizing a BCA Protein Assay Kit (Solarbio, China). An equivalent quantity of the proteins (12 μg) was fractionated via 8–12% sodium dodecyl sulfate–polyacrylamide gel electrophoresis (SDS-PAGE) and transferred onto nitrocellulose membranes (Amersham Biosciences, Amersham, UK). […] The blots were subsequently visualized using enhanced chemiluminescence (Biosharp, Shanghai, China) and detected utilizing a PE 0723 imager (ProteinSimple, Silicon Valley, CA, USA). Each experiment was conducted in triplicate at minimum and analyzed employing Image J software (V1.8.0.112). β-actin(ab198991) rabbit mAb, goat anti-rabbit IgG (H + L) HRP—#S0001 (Affinity). […]

[2] = test system: Bcl-2; assay: Western blot, Bcl-2 expression in HeLa cells; details: 24 h, 5 and 10 μM
Method: as §1, §2

[3] = test system: Bax; assay: Western blot, Bax expression in HeLa/DDP cells; details: 24 h, 5 and 10 μM
Method: as §1, §2

[4] = test system: Bcl-2; assay: Western blot, Bcl-2 expression in HeLa/DDP cells; details: 24 h, 2.5, 5, and 10 μM
Method: as §1, §2

[5] = test system: HeLa/DDP cells; assay: Rhodamine 123 accumulation in HeLa/DDP cells; details: 48 h, 0.5 and 1 μM
Method: The experimental procedure involved the addition of 1 drop of PBS to each well of a 12-well plate, followed by the placement of cell crawlers and removal of excess PBS. HeLa/DDP cells were then plated at a concentration of 1.5 × 10^5 cells/mL, with 1 mL per well, and cultured for a duration of 24 h. A blank control group was established alongside a positive group treated with verapamil (6 μM) and an intervention group treated with 3k (0.25, 0.5, and 1 μM) for a duration of 48 h. The drug-containing culture medium was subsequently washed with PBS three times, with each wash lasting 5 min. The Rh123 master mix was diluted with culture medium to create a 20 μM Rh123 buffer, which was subsequently incubated at a temperature of 37 °C for a duration of 1 h. Following this incubation period, the Rh123 buffer was removed, and the cells were subjected to three consecutive washes with PBS, each lasting for 10 min. Subsequently, a fixation process was conducted using 4% paraformaldehyde at a volume of 1 mL per well, with a duration of 20 min. […] Subsequently, the side containing cells was affixed onto the liquid and made ready for measurement. The cells were then examined using a fluorescence microscope (Leica, Microsystems CMS GmbH, GER) equipped with a fluorescein filter, and the fluorescence intensity of each distinct group was assessed.

[6] = test system: α-tubulin, β-tubulin in HeLa cells; assay: Immunofluorescence assay of microtubules, HeLa; details: 24 h, 3k 1, 2, and 4 μM, colchicine and paclitaxel 2.0 μM
Method: The cells were then fixed by adding 400 μL of 4% paraformaldehyde to each well and incubating for 30 min. 0.1% Triton was added at a volume of 400 μL per well and allowed to incubate for 10 min. Following this, goat serum (10%) was added at 400 μL per well and incubated for 40 min. Primary antibodies (α-tubulin, β-tubulin) were then incubated overnight at a temperature of 4 °C. Subsequently, secondary antibodies (α-mouse, β-rabbit) were incubated for 1.5 h. DAPI staining was performed at 400 μL per well for 5 min, followed by a wash with PBS. Cell climbing tablets were removed and inverted onto slides with sealer. Photographs were captured using a fluorescent inverted microscope.

[7] = test system: α-/β-tubulins in HeLa/DDP cells; assay: Western blot of polymerized and dissociated α-/β-tubulins, HeLa/DDP; details: versus control
Method: HeLa cells were cultured in 60 mm Petri dishes at a density of 1.0 × 10^6 cells per dish and treated with 0.1% DMSO (vehicle), positive control chalcone (20 μM), and different concentrations of compound 3k (2.5, 5, and 10 μM), respectively. Following a 24 and 48 h incubation period, the cells were harvested via centrifugation and subsequently washed twice with PBS that had been chilled to 0 °C. Next, the cells were homogenized using RIPA lysis buffer (Solarbio, Beijing, China) and supplemented with 1% PMSF (MP Biomedicals, 0754-25G, CAS:329-98-6, Santa Ana, CA, USA) and 1% mixed phosphatase inhibitor (Solarbio, Beijing, China). The resulting lysates were then incubated on ice for 30 min, intermittently vortexed every 5 min, and subsequently centrifuged at 12,000 rpm for 20 min to collect the supernatants.
Subsequently, the protein concentrations were determined utilizing a BCA Protein Assay Kit (Solarbio, China). An equivalent quantity of the proteins (12 μg) was fractionated via 8–12% sodium dodecyl sulfate–polyacrylamide gel electrophoresis (SDS-PAGE) and transferred onto nitrocellulose membranes (Amersham Biosciences, Amersham, UK). Following this, the membranes were obstructed with 5% nonfat dried milk in TBS containing 1% Tween-20 for a duration of 2 h at ambient temperature and were subjected to overnight incubation with specific primary antibodies (CST, Boston, MA, USA) at 4 °C. Following three washes in TBST, the membranes were subjected to incubation with the suitable HRP-conjugated secondary antibodies at ambient temperature for a duration of 2 h. The blots were subsequently visualized using enhanced chemiluminescence (Biosharp, Shanghai, China) and detected utilizing a PE 0723 imager (ProteinSimple, Silicon Valley, CA, USA). Each experiment was conducted in triplicate at minimum and analyzed employing Image J software (V1.8.0.112). β-actin(ab198991) rabbit mAb, goat anti-rabbit IgG (H + L) HRP—#S0001 (Affinity). Bax (ab289364), Bcl-2 (ab218123), MDR1/ABCB1 (E1Y7B) rabbit mAb #13342 (CST).
Polymerized and free microtubule proteins were extracted using the methods described in references, respectively. Following drug intervention, the cells were subjected to two washes with preheated microtubule protein buffer MTSB at 37 °C. Subsequently, 70 μL of MTSB was added, and the cells were lysed for 10 min at 37 °C in a constant temperature chamber shielded from light. The cells were then scraped with a spatula and centrifuged at 14,000 r/min for 10 min at room temperature. The resulting supernatant, which represented the free state microtubule protein suspension, was subsequently removed. The remaining precipitate was treated with RIPA lysis solution, followed by lysis on ice for a duration of 30 min. Subsequently, centrifugation was performed at a temperature of 4 °C and a speed of 12,000 revolutions per minute for a duration of 20 min. The resulting supernatant was collected as a suspension of polymerized microtubule protein. The Western blotting procedure was the same as in Section 3.3.4. α-Tubulin (DM1A) Mouse mAb#3873 (CST), β-Tubulin (D2N5G) Rabbit mAb #15115 (CST), CoraLite488-conjugated Goat Anti-Mouse lgG(H+L) (Proteintech); CoraLite488-conjugated Goat Anti-Rabbit lgG(H+L) (Proteintech); β-actin(ab198991) rabbit mAb, Goat Anti-Mouse IgG H&L (HRP) (ab6789); Goat anti-Rabbit IgG (H+L) HRP—#S0001 (Affinity).

For `COc1ccc(/C=C(\C)C(=O)c2ccc(Cl)c(Cl)c2)cc1OC` [Compound 3k, (E)-1-(3,4-Dichlorophenyl)-3-(3,4-dimethoxyphenyl)-2-methylprop-2-en-1-one], the “Bax expression versus control group” value [1] was “significant upregulation”, the “Bcl-2 expression versus control group” value [2] was “downregulation” and the “Bax expression versus control group” value [3] was “significant increase”. The “Bcl-2 expression versus control group” value [4] was “significantly downregulate”, the “average fluorescence intensity emitted by rhodamine 123” value [5] was “notably greater than that of the control group” and the “microtubule immunofluorescence (α green, β red)” value [6] was “green and red fluorescence of the encapsulated cells weakened”. The “expression of polymerized β microtubulin” value ([7]; 24 h, 1, 2, and 4 μM) was “significant reduction”, the “expression of polymerized α-microtubulin” value ([7]; 24 h, 2 and 4 μM) was “significant decrease” and the “expression of dissociated state α and β microtubule proteins” value ([7]; 24 h, 3k 4 μM, colchicine and paclitaxel 2.0 μM) was “significant increase”.
